# Reference: patent US20230233569A1 (Revolution Medicines, Inc., priority 2020, published 2023)
# Read-outs that look alike come from different tables or passages of the source.
# How the values were obtained:
# [1] = system: Capan-1 (K-Ras G12V); experiment: CellTiter-Glo cell viability assay, 5-day treatment; assay type: cell-based; settings: Homo sapiens, CAPAN-1, 120 h, 5-day treatment; read-out: Capan-1 Cell Viability assay data (K-Ras G12V, IC50)
# Method in brief: (§1)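 Five-day compound treatment of plated cells; luminescent read after ~30 min at RT. Percent-of-DMSO data fit to a four-parameter logistic model.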
# [2] = system: NCI-H358 (K-Ras G12C); experiment: as above; assay type: cell-based; settings: Homo sapiens, NCI-H358, 120 h, 5-day treatment; read-out: H358 Cell Viability assay data (K-Ras G12C, IC50)
# Method in brief: as §1
# [3] = molecular target: KRAS G12C (Homo sapiens, UniProt P01116+P62937, G12C); experiment: Disruption of BRAF RBD interaction with Ras (FRET / MOA assay, with Cyclophilin A); assay type: biochemical
# Method in brief: (§2)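 Cyclophilin A-dependent ternary complex assay. K-Ras loaded with nucleotide; BRAF RBD as effector. Cpd top 30 μM final, 3 h at 25 °C. Readout: TR-FRET ratio, IC50.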
# [4] = molecular target: KRAS G12D (Homo sapiens, UniProt P01116+P62937, G12D); experiment: as above; assay type: biochemical
# Method in brief: as §2
# [5] = molecular target: KRAS G12S (Homo sapiens, UniProt P01116+P62937, G12S); experiment: as above; assay type: biochemical
# Method in brief: as §2
# [6] = molecular target: KRAS G12V (Homo sapiens, UniProt P01116+P62937, G12V); experiment: as above; assay type: biochemical
# Method in brief: as §2
# [7] = molecular target: KRAS G13C (Homo sapiens, UniProt P01116+P62937, G13C); experiment: as above; assay type: biochemical
# Method in brief: as §2
# [8] = molecular target: KRAS G13D (Homo sapiens, UniProt P01116+P62937, G13D); experiment: as above; assay type: biochemical
# Method in brief: as §2
# [9] = molecular target: KRAS WT (Homo sapiens, UniProt P01116+P62937); experiment: as above; assay type: biochemical
# Method in brief: as §2
# [10] = molecular target: NRAS G12C (Homo sapiens, UniProt P01111+P62937, G12C); experiment: as above; assay type: biochemical
# [11] = read-out: KRAS G12C FRET data, IC50
# [12] = read-out: KRAS G12D FRET data, IC50
# [13] = read-out: KRAS G12S FRET data, IC50
# [14] = KRAS G12V, read-out: KRAS G12V FRET data IC50
# [15] = read-out: KRAS G13C FRET data, IC50
# [16] = KRAS G13D, read-out: KRAS G13D FRET data IC50
# [17] = KRAS WT, read-out: KRAS WT FRET data IC50
# [18] = NRAS G12C, read-out: NRAS G12C FRET data IC50
# [19] = KRAS G12V FRET data IC50, KRAS G12V
# [20] = KRAS G13D FRET data IC50, KRAS G13D
# [21] = KRAS WT FRET data IC50, KRAS WT
# [22] = NRAS G12C FRET data IC50, NRAS G12C
# Chain of KRAS G12S (P01116 1-169 isoform P01116-2 G12S limits assumed): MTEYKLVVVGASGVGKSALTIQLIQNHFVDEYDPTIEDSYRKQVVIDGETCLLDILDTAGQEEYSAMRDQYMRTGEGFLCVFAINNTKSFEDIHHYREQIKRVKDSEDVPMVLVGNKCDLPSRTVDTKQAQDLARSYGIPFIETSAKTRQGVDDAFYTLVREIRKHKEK
# Chain of KRAS G12S (P62937 whole entry): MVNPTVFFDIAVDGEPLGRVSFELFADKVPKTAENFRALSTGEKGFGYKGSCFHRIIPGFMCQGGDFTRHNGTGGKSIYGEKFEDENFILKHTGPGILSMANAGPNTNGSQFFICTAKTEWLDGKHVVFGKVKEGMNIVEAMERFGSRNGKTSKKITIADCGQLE
# Chain of KRAS G12V (P01116 1-169 isoform P01116-2 G12V limits assumed): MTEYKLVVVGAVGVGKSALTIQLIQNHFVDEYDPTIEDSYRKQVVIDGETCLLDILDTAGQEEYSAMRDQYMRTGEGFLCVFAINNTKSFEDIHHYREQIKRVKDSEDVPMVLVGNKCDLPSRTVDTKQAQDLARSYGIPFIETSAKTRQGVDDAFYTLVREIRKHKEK
# Chain of KRAS G12V (P62937 whole entry): as the sequence (P62937 whole entry) above
# Chain of NRAS G12C (P01111 whole entry G12C): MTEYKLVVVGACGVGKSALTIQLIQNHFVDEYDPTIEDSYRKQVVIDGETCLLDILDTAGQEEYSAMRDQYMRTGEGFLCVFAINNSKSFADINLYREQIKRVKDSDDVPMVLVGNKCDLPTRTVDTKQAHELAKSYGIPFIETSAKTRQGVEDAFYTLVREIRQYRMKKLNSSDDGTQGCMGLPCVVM
# Chain of NRAS G12C (P62937 whole entry): as the sequence (P62937 whole entry) above
# Chain of KRAS G13D (P01116 1-169 isoform P01116-2 G13D limits assumed): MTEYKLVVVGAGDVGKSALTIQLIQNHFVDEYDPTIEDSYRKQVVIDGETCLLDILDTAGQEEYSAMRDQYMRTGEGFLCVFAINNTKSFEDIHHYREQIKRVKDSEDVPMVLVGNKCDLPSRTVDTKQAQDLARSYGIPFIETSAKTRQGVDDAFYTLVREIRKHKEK
# Chain of KRAS G13D (P62937 whole entry): as the sequence (P62937 whole entry) above
# Chain of KRAS G12C (P01116 1-169 isoform P01116-2 G12C): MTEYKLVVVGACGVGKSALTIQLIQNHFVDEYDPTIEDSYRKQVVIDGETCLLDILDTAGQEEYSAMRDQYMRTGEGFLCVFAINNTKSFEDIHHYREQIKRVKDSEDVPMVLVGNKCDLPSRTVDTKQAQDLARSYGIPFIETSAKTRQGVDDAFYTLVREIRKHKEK
# Chain of KRAS G12C (P62937 whole entry): as the sequence (P62937 whole entry) above
# Chain of KRAS G13C (P01116 1-169 isoform P01116-2 G13C): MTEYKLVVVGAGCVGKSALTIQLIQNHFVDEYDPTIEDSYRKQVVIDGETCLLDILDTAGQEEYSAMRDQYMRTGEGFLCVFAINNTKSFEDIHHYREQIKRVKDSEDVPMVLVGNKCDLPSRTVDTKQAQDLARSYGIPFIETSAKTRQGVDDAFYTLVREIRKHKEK
# Chain of KRAS G13C (P62937 whole entry): as the sequence (P62937 whole entry) above
# Chain of KRAS G12D (P01116 1-169 isoform P01116-2 G12D limits assumed): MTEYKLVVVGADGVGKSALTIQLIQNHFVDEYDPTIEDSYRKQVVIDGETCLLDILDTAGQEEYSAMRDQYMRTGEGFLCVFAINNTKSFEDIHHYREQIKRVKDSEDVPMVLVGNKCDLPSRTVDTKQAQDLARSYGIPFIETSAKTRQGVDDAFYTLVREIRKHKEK
# Chain of KRAS G12D (P62937 whole entry): as the sequence (P62937 whole entry) above
# Chain of KRAS WT (P01116 1-169 isoform P01116-2 limits assumed): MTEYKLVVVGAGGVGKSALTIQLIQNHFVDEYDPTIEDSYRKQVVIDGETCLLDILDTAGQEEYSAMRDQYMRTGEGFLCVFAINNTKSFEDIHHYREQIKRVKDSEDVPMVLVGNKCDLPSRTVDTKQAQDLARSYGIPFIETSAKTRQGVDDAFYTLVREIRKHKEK
# Chain of KRAS WT (P62937 whole entry): as the sequence (P62937 whole entry) above
IC50 [2],"IC50 [3, 11]","IC50 [4, 12]","IC50 [5, 13]","IC50 [6, 14]","IC50 [7, 15]","IC50 [8, 16]","IC50 [9, 17]","IC50 [10, 18]","IC50 ([3]; KRAS G12C FRET data, IC50)","IC50 ([4]; KRAS G12D FRET data, IC50)","IC50 ([5]; KRAS G12S FRET data, IC50)","IC50 [6, 19]","IC50 ([7]; KRAS G13C FRET data, IC50)","IC50 [8, 20]","IC50 [9, 21]","IC50 [10, 22]",Structure (SMILES),IC50 [1]
100 to 1000 nM,100 to 1000 nM,100 to 1000 nM,100 to 1000 nM,100 to 1000 nM,10 to 100 nM,100 to 1000 nM,100 to 1000 nM,100 to 1000 nM,,,,,,,,,CCn1c(-c2cccnc2[C@H](C)OC)c2c3cc(ccc31)-c1cc(O)cc(c1)C[C@H](NC(=O)[C@H](C(C)C)N(C)C(=O)N1CC(N(C)C)C1)C(=O)N1CCC[C@H](N1)C(=O)OCC(C)(C)C2 [Example A171],100 to 1000 nM
100 to 1000 nM,,,,,,,,,10 to 100 nM,100 to 1000 nM,10 to 100 nM,10 to 100 nM,10 to 100 nM,10 to 100 nM,10 to 100 nM,10 to 100 nM,"CCn1c(-c2cccnc2[C@H](C)OC)c2c3cc(ccc31)-c1cc(O)cc(c1)C[C@H](NC(=O)[C@H](C(C)C)N(C)C(=O)[C@H]1C[C@@H](O)C1)C(=O)N1CCC[C@H](N1)C(=O)OCC(C)(C)C2 (atropisomer, axis not shown) [Example A121]",100 to 1000 nM
100 to 1000 nM,100 to 1000 nM,1000 to 10000 nM,100 to 1000 nM,100 to 1000 nM,100 to 1000 nM,100 to 1000 nM,100 to 1000 nM,100 to 1000 nM,,,,,,,,,CCn1c(-c2cnccc2COC)c2c3cc(ccc31)-c1cc(O)cc(c1)C[C@H](NC(=O)[C@H](C(C)C)N(C)C(=O)[C@@H]1CCOC1)C(=O)N1CCC[C@H](N1)C(=O)OCC(C)(C)C2 [Example A94],100 to 1000 nM
100 to 1000 nM,10 to 100 nM,10 to 100 nM,10 to 100 nM,10 to 100 nM,10 to 100 nM,10 to 100 nM,10 to 100 nM,10 to 100 nM,,,,,,,,,CCn1c(-c2cccnc2[C@H](C)OC)c2c3cc(ccc31)-c1cc(O)cc(c1)C[C@H](NC(=O)[C@H](C(C)C)N(C)C(=O)[C@H]1CCN(C(=O)[C@H]3CCCN3)C1)C(=O)N1CCC[C@H](N1)C(=O)OCC(C)(C)C2 [Example A378],1000 to 10000 nM
1000 to 10000 nM,10 to 100 nM,10 to 100 nM,10 to 100 nM,100 to 1000 nM,10 to 100 nM,10 to 100 nM,10 to 100 nM,10 to 100 nM,,,,,,,,,CCn1c(-c2cccnc2[C@H](C)OC)c2c3cc(ccc31)-c1cc(O)cc(c1)C[C@H](NC(=O)[C@H](C(C)C)N(C)C(=O)[C@@H]1CCNC1)C(=O)N1CCC[C@H](N1)C(=O)OCC(C)(C)C2 [Example A129],1000 to 10000 nM
100 to 1000 nM,100 to 1000 nM,1000 to 10000 nM,100 to 1000 nM,1000 to 10000 nM,1000 to 10000 nM,1000 to 10000 nM,100 to 1000 nM,100 to 1000 nM,,,,,,,,,CCn1c(-c2cnccc2COC)c2c3cc(ccc31)-c1cc(O)cc(c1)C[C@H](NC(=O)[C@H](C(C)C)N(C)C(=O)O[C@H]1CCOC1)C(=O)N1CCC[C@H](N1)C(=O)OCC(C)(C)C2 [Example A260],1000 to 10000 nM
> 10000 nM,,,,,,,,,100 to 1000 nM,1000 to 10000 nM,100 to 1000 nM,1000 to 10000 nM,100 to 1000 nM,100 to 1000 nM,100 to 1000 nM,1000 to 10000 nM,CCn1c(-c2cnccc2COC)c2c3cc(ccc31)-c1cc(O)cc(c1)C[C@H](NC(=O)[C@H](C(C)C)N(C)C(=O)C1CCN(C)CC1)C(=O)N1CCC[C@H](N1)C(=O)OCC(C)(C)C2 [Example A84],> 10000 nM
1000 to 10000 nM,10 to 100 nM,10 to 100 nM,10 to 100 nM,100 to 1000 nM,100 to 1000 nM,100 to 1000 nM,100 to 1000 nM,10 to 100 nM,,,,,,,,,"CCn1c(-c2cccnc2[C@H](C)OC)c2c3cc(ccc31)-c1cc(O)cc(c1)C[C@H](NC(=O)[C@H](C(C)C)N(C)C(=O)[C@H]1CCN(C(=O)CNC)C1)C(=O)N1CCC[C@H](N1)C(=O)OCC(C)(C)C2 (atropisomer, axis not shown) [Example A120]",> 10000 nM
100 to 1000 nM,,,10 to 100 nM,10 to 100 nM,,,,10 to 100 nM,,,,,,,,,CCn1c(-c2cccnc2[C@H](C)OC)c2c3cc(ccc31)-c1cc(O)cc(c1)C[C@H](NC(=O)[C@H](C(C)C)N(C)C(=O)C1(CN)CC1)C(=O)N1CCC[C@H](N1)C(=O)OCC(C)(C)C2 [Example A139],100 to 1000 nM
